Data set [1] in a line: Water solubility noted at synthesis. It is filed as physicochemical. The settings on record: crystal obtained in Example 1. The protocol:
3.58 g of 3-methyl-1-phenyl-5-pyrazolone (hereinafter, also referred to as “edaravone”), 2.59 g of malonaldehyde dianilide hydrochloride, and 20 ml of ethanol were added to a reactor and dissolved. To the obtained solution, 2.04 g of triethylamine and 0.4 ml of water were added and stirred for 1 hour at room temperature (about 25° C., hereinafter, the same applies). After the stirring, the resultant was further reacted for 1 hour at 50° C. After discharging the obtained reaction solution to 100 ml of 1N hydrochloric acid, the mixture was sufficiently stirred and the precipitate was filtered. The resulting cake was washed with water. The cake was added to 200 ml of an aqueous sodium hydroxide solution having a 1% by weight concentration and completely dissolved by heating with stirring. Next, the dissolved solution was stirred for 3 hours after cooling to room temperature. Then, the liquid containing the obtained precipitate was filtered, and then the cake was washed with water. […] Note that the melting point of ED2AP was 249° C., which was water-soluble.
3 ml of dimethylformamide was added to a reactor and the exterior of the reactor was cooled with ice water. 1.75 g of phosphorus oxychloride was slowly dropped into the reactor (Reaction Solution A). In another reactor, 1.78 g of edaravone was dissolved in 5 ml of dimethylformamide (Reaction Solution B). Under room temperature, the reaction solution B was slowly added to the reaction solution A, and the resulting mixture was allowed to react for 1 hour with the end of addition (Reaction Solution C) being a reference. In another reactor, 1.81 g of 3-methyl-1-phenyl-5-pyrazolone was added to 8 ml of chloroform and dissolved (Reaction Solution D). Under room temperature, the reaction solution C was slowly added to the reaction solution D, followed by stirring for 20 minutes and further stirring at 70° C. for 1 hour. To the resultant, 0.2 g of water was added and stirred for another 2 hours. The obtained reaction solution was discharged into 100 ml of water and extracted with a mixed solvent of toluene/ethyl acetate=1/1 (volume ratio). After condensation of the obtained extract, column purification was performed to obtain 2.92 g of yellow crystal of the compound of the formula (10) having the following physical properties.
1.00 g of edaravone, 0.72 g of paraformaldehyde, and 20 ml of formic acid were added to a reaction flask and stirred overnight for 20 hours at 70° C. The obtained reaction solution was discharged into 80 ml of water and extracted with a mixed solvent of toluene/ethyl acetate=1/1 (volume ratio). When the extract was condensed to about two-thirds, crystals were precipitated. Further, the resultant was cooled to room temperature, and sufficiently crystallized, and then filtered. The obtained cake was washed with toluene to obtain 0.88 g of pale yellow crystal of the compound of the formula (14) having the following physical properties.
In Example 1(1), synthesis was performed in the same manner as described above except that 3-methyl-1-ethyl-5-pyrazolone was used instead of edaravone to obtain red crystal of BisEp-C3 having the following physical properties. Note that BisEp-C3 was water-soluble.
In Example 1(2), synthesis was performed in the same manner as described above except that 3-methyl-1-ethyl-5-pyrazolone was used instead of edaravone to obtain yellow crystal of BisEp-C1 having the following physical properties. Note that BisEp-C1 was water-soluble.
In Example 1(3), synthesis was performed in the same manner as described above except that 3-methyl-1-ethyl-5-pyrazolone was used instead of edaravone, then the obtained reaction solution was condensed, and the resultant was subjected to column purification to obtain colorless crystal of BisEp-C1 (H2) having the following physical properties. Note that BisEp-C1 (H2) was water-soluble.

Data set [2] relates to rat neuroid cells B50. The data set can be described thus: Alleviation of singlet oxygen (Rose Bengal + G-LED) cytotoxicity, Alamar Blue fluorescence. The settings on record: for recovery of the fluorescence intensity (cellular activity): 0, 12.5, 25, 50, or 100 μmol/l, 200 nmol/l RB + G-LED 5 minutes, FIG. 3; for cytoprotective function compared with edaravone: B50 cells, RB + G-LED singlet oxygen. It is filed as cell-based. The protocol:
Edaravone, ED2AP and BisEp-C3 were examined whether they had the function of alleviating neuronopathy. Specifically, singlet oxygen was generated by combining Rose Bengal (RB), which is a sensitizer, with green light (G-LED), and the function of alleviating the cytotoxicity of the generated singlet oxygen was examined with the cellular activity being an indicator.
First, rat neuroid cells B50 were cultured in 12-well dishes at 2×10^5 cells/well (medium: RPMI-1640 medium containing 5% FCS) overnight. After the culturing, the medium of each well was replaced with HBSS (1000 μl/well; phenol red free Ca+, Mg+) containing 200 nmol/l RB and edaravone, ED2AP, or BisEp-C3 having a predetermined concentration (0, 12.5, 25, 50, or 100 μmol/l). The dish was then irradiated with G-LED for 5 minutes to generate singlet oxygen. Thereafter, the medium of each well was replaced with 1000 μl of HBSS and Alamar Blue was added. The dish was then allowed to react for about 2 hours in an incubator at 37° C. and 5% CO2. After the reaction, fluorescence intensity (excitation wavelength: λ-560 nm, fluorescence wavelength: λ-595 nm) was measured with a plate reader (infinite200, Tecan Trading AG). In this experimental system, the higher the cellular activity, the more Alamar Blue is taken up and the higher the fluorescence intensity. As a control, fluorescence intensity was measured in the same manner except that sodium azide (Azide, NaN3) was added instead of the compounds so as to achieve a concentration of 4 mmol/l. As a negative control (NC), fluorescence intensity was measured in the same manner except that RB was not added. The relative value of the fluorescence intensity in the sample to which each compound was added was calculated with the fluorescence intensity of the negative control being 100.
(The colour change of resazurin is a common sign of viable cells or microbes.)

The test system of data set [3] is rat neuroid cells B50. The data set can be described thus: Toxicity evaluation on byproducts after reaction with singlet oxygen, cell viability. It is filed as cell-based. The settings on record: 50, 100, or 200 μmol/l reacted with RB + G-LED 525 nm in cell-free system; FIG. 6. The protocol:
In a cell-free system, the RB was added to media (50% FCS-containing RPMI-1640 media) containing edaravone, ED2AP, and BisEp-C3 having a predetermined concentration (50, 100, or 200 μmol/l) and then irradiated with LED (G-LED) at 525 nm to generate singlet oxygen, whereby reacting each compound with singlet oxygen. The cell viability was measured in the same manner as in Example 7(1), except that the culture solution after the reaction was used as a medium of the neuroid cell B50. As a negative control (NC), the cell viability was measured in the same manner except that each compound and […] were not added in the cell-free system. Further, as a control (RB), the cell viability was measured in the same manner except that each compound was not added and only […] was added in the cell-free system.

The structures appear in SMILES notation.

In the case of `CCN1N=C(C)/C(=C\C=C\c2c(C)nn(CC)c2O)C1=O` (racemic) [BisEp-C3, 2,4-dihydro-4-[3-(1-ethyl-5-hydroxy-3-methyl-1H-pyrazol-4-yl)-2-propen-1-ylidene]-2-ethyl-5-methyl-3H-pyrazol-3-one], the solubility in water result in data set [1] is reported as “water-soluble”. In addition, in data set [2], the “recovery of the fluorescence intensity (cellular activity)” value is given as “recovered in a concentration-dependent manner” and the “cytoprotective function compared with edaravone” value is listed as “higher than that of edaravone”. The “cytotoxicity of the byproducts after reaction with singlet oxygen (cell viability)” value in data set [3] is reported as “not cytotoxic at any concentration”.

`CC1=NN(c2ccccc2)C(=O)/C1=C/C=C/c1c(C)nn(-c2ccccc2)c1O` (racemic) [ED2AP, 2,4-dihydro-4-[3-(5-hydroxy-3-methyl-1-phenyl-1H-pyrazol-4-yl)-2-propen-1-ylidene]-5-methyl-2-phenyl-3H-pyrazol-3-one]: the solubility in water entry in data set [1] is recorded as “water-soluble”. In data set [2], the “recovery of the fluorescence intensity (cellular activity)” value was “recovered in a concentration-dependent manner” and the “cytoprotective function compared with edaravone” value is “higher than that of edaravone”. In addition, in data set [3], the “cytotoxicity of the byproducts after reaction with singlet oxygen (cell viability)” value is “not cytotoxic at any concentration”.

For the origin of these results see patent US20220110916A1, “Antioxidant and Use Thereof” (Bioradical Research Institute Corp., priority 2019, published 2022).
